Series [1] concerns cytochrome p450 (CYP) IAI gene. Put plainly: MC RT-PCR with Celi competitive templates, induction of CYPIAI gene expression. Format: cell-based, human. Particulars: BEP2D cells incubated with β-napthoflavone (10 μM); control 0.1% DMSO; about the same cDNA loading by GAPDH reference gene. The procedure: In a second set of experiments, multiplex competitive reverse transcriptase polymerase chain reaction (MC RT-PCR) with competitive templates were prepared by the Celi method to evaluate the cytochrome p450 (CYP) IAI gene in β-napthoflavone-exposed BEP2D cells. The induction of CYPIAI gene expression was evaluated using both MC RT-PCR with Celi competitive templates, and Northern analysis. Competitive templates were prepared for both the CYPIAI and GAPDH genes. The primers used to prepare the competitive template for GAPDH were: […]
The PCR amplification conditions were the same as described for experiments using the competitive templates prepared for GAPDH and GSHPx by the Higuchi method except the annealing temperature was 55 degrees centigrade and the amplification was carried out for 38 cycles.
Because the native and competitive templates separate without prior restriction endonuclease digestion, samples were taken directly from the PCR reaction tube and applied to ethidium bromide stained 3% Nusieve, 1% LE agarose gels. It was then possible to quantify the products by taking a negative photograph of the gel using Polaroid 665 positive/negative instant film, subjecting the negative photograph to densitometry. […]

The subject of series [2] is cytochrome p450 IA1 (CYPIAI). Put plainly: Northern analysis of CYPIAI gene expression. Format: cell-based, human. Particulars: BEP2D cells incubated with β-napthoflavone (10 μM); control 0.1% DMSO; 32P-labeled CYPIAI cDNA probe. The procedure: RNA from BEP2D cells incubated for varying times with β-napthoflavone (10 μM) was either electrophoresed on a 1% LE formaldehyde denaturing gel for Northern analysis or MC RT-PCR amplified, as described above. For Northern analysis, following transfer of the RNA to GeneScreen, the filters were hybridized with ^32P-labeled CYPLAI cDNA.

As to `O=c1cc(-c2ccccc2)oc2ccc3ccccc3c12` [β-napthoflavone], the “band representing the native CYPIAI gene, exposed cells compared to control cells” value in series [1] was “much more strongly represented”. The “gene expression of the CYPIAI gene” value in series [2] is reported as “increase”.
